The values that follow come from patent US20240325371A1, “USE OF EZH2 INHIBITOR IN PREPARATION OF DRUG FOR TREATING T-CELL LYMPHOMA” (JIANGSU HENGRUI MEDICINE CO., LTD., priority 2021, published 2024).

This assay relates to relapsed or refractory PTCL. Briefly: Efficacy study of compound shown in Formula (I) in peripheral T-cell lymphoma patients. Format: in vivo, human. How it is done:
ORR: Defined as the proportion of subjects with best efficacy of CR or PR from the start of the first dose to the occurrence of PD or the start of subsequent new anti-tumor treatment, whichever occurs first. • 1.1 Drugs: Compound (WO2017084494A) shown in Formula (1), strength: 50 mg/tablet, 200 mg/tablet. • 1.2 Methods of administration: 350 mg, twice a day, 28 days as a cycle. • 1.3 Inclusion criteria: Relapsed or refractory T lymphocytic lymphoma. A total of 24 patients with relapsed or refractory PTCL were enrolled in the 350 mg group, of whom 16 received chidamide, and all patients were analyzed for efficacy data based on indistinguishable prior treatment and prior chidamide treatment.

For `CCc1c(N(CC)C2CCOCC2)cc2oc(CN3CCCCC3)cc2c1C(=O)NCc1c(C)cc(C)[nH]c1=O` [Formula (I)], the ORR runs as follows: (350 mg group having used chidamide, ES, AITL (n = 8)) 62.5%; (350 mg group having used chidamide, ES, ALL (n = 14)) 64.3%; (350 mg group having used chidamide, ES, PTCL-NOS (n = 6)) 66.7%; (350 mg group having used chidamide, FAS, AITL (n = 10)) 50.0%; (350 mg group having used chidamide, FAS, ALL (n = 16)) 56.3%; (350 mg group having used chidamide, FAS, PTCL-NOS (n = 6)) 66.7%. The ORR was determined as 72.7% (350 mg twice a day, ES, AITL (n = 11)); 66.7% (350 mg twice a day, ES, ALL (n = 18)); 57.1% (350 mg twice a day, ES, PTCL-NOS (n = 7)); 53.3% (350 mg twice a day, FAS, AITL (n = 15)); 50% (350 mg twice a day, FAS, ALL (n = 24)); 44.4% (350 mg twice a day, FAS, PTCL-NOS (n = 9)).
